Data taken from patent US20230210807A1, “USE OF BENZOATE COMPOUND IN TREATMENT OF SARS-COV-2 INFECTIONS” (ACADEMY OF MILITARY MEDICAL SCIENCES, priority 2020, published 2023).
Entries after “also recorded” stand apart in the source; their conditions may differ.

Columns and labels:
[1] = tested on: SARS-CoV-2; assay: Reduction of viral nucleic acid load in SARS-CoV-2 infected Vero E6 cells (qRT-PCR of supernatant); type: cell-based, SARS-CoV-2 (nCoV-2019BetaCoV/Wuhan/WIV04/2019 strain); settings: for Copy number of virus genome: Vero E6 cells, 100TCID50, 48 hours
[2] = tested on: MERS-CoV; settings: in vitro, cited from earlier work
[3] = tested on: Vero-E6 cells; assay: Cytotoxicity test of drugs (CCK-8 kit); settings: 48 hours; for Cell viability (% of vehicle control): Vero-E6 cells

## N=C(N)c1ccc2cc(OC(=O)c3ccc(N=C(N)N)cc3)ccc2c1 [Nafamostat, 6-amidino-2-naphthyl-4-guanidino benzoate]
[1]; 0.14 µM
  Copy number of virus genome: 1169068894.5±28678551.13
[1]; 0.41 µM
  Copy number of virus genome: 2051893138.5±1115069812.46
[1]; 1.23 µM
  Copy number of virus genome: 2805092897.49±419609425.32
[1]; 3.70 µM
  Copy number of virus genome: 3601892897.5±680084251.56
[1]; 11.11 µM
  Copy number of virus genome: 2116737884±785155013.49
[1]; 33.33 µM
  Copy number of virus genome: 1015568394.5±70116949.22
[1]; 100 µM, copies per milliliter per method
  Copy number of virus genome: 395904281±285024470.56
[1]; 48 hours after infection by SARS-CoV-2, Vero E6 cells, FIG. 1(a)
  Viral RNA load in the cells (in words): can reduce the viral RNA load
[1]; concentrations of 100 µM, 33 µM, 11.1 µM and 3.7 µM
  Inhibition of replication of SARS-CoV-2 virus genome in the infected supernatant (in words): could effectively inhibit the replication of SARS-CoV-2 virus genome
[2]; versus Camostat
  IC50 relative to that of Camostat (times higher): 10 times
[2]; read-out: IC50 (MERS-CoV infection in vitro)
  IC50: 0.1 µM
[3]; 0.14 µM
  Cell viability (% of vehicle control): 103.25±2.53 % of vehicle control
[3]; 0.41 µM
  Cell viability (% of vehicle control): 106.14±1.77 % of vehicle control
[3]; 1.23 µM
  Cell viability (% of vehicle control): 95.85±2.57 % of vehicle control
[3]; 3.70 µM
  Cell viability (% of vehicle control): 94.88±4.44 % of vehicle control
[3]; 11.11 µM
  Cell viability (% of vehicle control): 93.68±1.83 % of vehicle control
[3]; 33.33 µM
  Cell viability (% of vehicle control): 92.64±2.16 % of vehicle control
[3]; 100 µM
  Cell viability (% of vehicle control): 92.65±3.37 % of vehicle control
[3]; all test concentrations, Vero E6 cells
  Cytotoxicity (in words): no cytotoxicity was observed; also recorded: no toxic effect on the cells at all concentrations
